From patent US20250057928A1, “VACCINE COMPOSITION FOR INDUCING ANTI-IL-23 ANTIBODY” (OSAKA UNIVERSITY, priority 2021, published 2025) come the findings set out here.

One experiment deals with epitope peptide. Description: Antibody titer (GMT) of serum of mice administered AJP001 conjugated peptide, ELISA. To be noted: BALB/c mice, 0.5 mg/body intradermal with equal amount of 2% Alhydrogel, 3 times at two-week intervals; serum 6 weeks after initial administration; titer to each epitope sequence. The experiment is classed as in vivo, mouse. As to the method: AJP001 conjugated peptide having one of the B cell epitope sequences of SEQ ID NOs: 1-5 was dissolved in physiological saline and intradermally administered twice to BALB/c mice (female, 6-week-old, N=5-6) at 0.5 mg/body at 2-week intervals. Blood was collected before administration and 5 weeks after the initial administration, and the antibody titer against each AJP001 conjugated peptide and the binding ability to recombinant mouse IL-23 protein (rmIL-23) were measured by the ELISA method. Specifically, a 96-well plate immobilized with an epitope peptide dissolved at 10 μg/mL in carbonate buffer was blocked with 5% skim milk/PBS, and then serum serially diluted with 5% skim milk/PBS was added, and the mixture was left standing at 4° C. overnight. After washing the wells with PBS-T, HRP-labeled anti-mouse IgG antibody (GE Healthcare) diluted with 5% skim milk/PBS was added and the mixture was shaken at room temperature for 3 hr. After washing the wells with PBS-T, TMB solution (SIGMA) was added, the wells were allowed to stand for 30 min in the dark, the reaction was stopped by adding 0.5M H2SO4, and the absorbance at 450 nm was measured using a plate reader. The serum dilution rate that gave 1/2 (OD=1.75) of the maximum absorbance was defined as the antibody titer, and the geometric mean titer: GMT was calculated from the individual values. Binding to IL-23 protein was measured by the ELISA method in the same manner as the antibody titer, using rmIL-23 (Antibodies-online GmbH) as the solid-phased antigen and goat serum for blocking.
AJP001 conjugated peptide (SEQ ID NO: 2) was dissolved in physiological saline and intradermally administered to BALB/c mice (female, 6-week-old, N=6) at 1 mg/body 3 times at two-week intervals, and blood was collected every 2 weeks until 8 weeks. The antibody titer (GMT) of all the collected sera and the binding ability to rmIL-23 of the serum at the time point of 6 weeks were measured by the ELISA method (same method as in Example 1). The antibody titer and the binding of the induced antibody to rmIL-23 at each time point are shown in FIGS. 2 (a) and (b), respectively.
AJP001 conjugated peptide (SEQ ID NOs: 6-37) was dissolved in physiological saline, mixed with an equal amount of 2% Alhydrogel (invivogen), and this was intradermally administered to BALB/c mice (female, 6-week-old, N=5-6) at 0.5 mg/body 3 times at two-week intervals. Blood was collected before administration and at the time point of 6 weeks after initial administration, and the antibody titer (GMT) to each epitope sequence and binding ability to recombinant human IL-23 protein (rhIL-23) (Peprotech) were measured by the ELISA method (same method as in Example 1). The binding to rhIL-23 was evaluated by a binding ratio to normal serum by calculating the ratio of the absorbance of a well added with normal mouse serum to the absorbance of a well added with antiserum derived from a mouse administered with each AJP001 conjugated peptide (SEQ ID NOs: 6-37). In addition, the neutralization activity of mouse antiserum was evaluated using an action on IL-17 production in rhIL-23 stimulated mouse splenocyte as an index. The spleen of normal BALB/c mouse (female, 5-week-old, N=3) was triturated using a syringe barrel and a cell strainer and washed with and suspended in HBSS (−). Erythrocytes were then removed using ACK Buffer (Thermo fisher scientific), and splenocytes were isolated. The splenocytes were prepared to 2.5×10^6 cells/mL with 10% FBS/1% penicillin/streptomycin/4 ng/mL rmIL-2-containing RPMI1640 medium (culture medium), and seeded in a 96 well plate at 100 μl/well. The antiserum (final concentration 15-fold) of the mice administered with each AJP001 conjugated peptide and rhIL-23 (final concentration 10 ng/ml) were added to the culture medium, reacted at 37° C. for 2 hr, added at 100 μL/well to a 96-well plate seeded with splenocytes, and cultured for 3 days in a 37° C./5% CO2 incubator. […]
For orientation: An ELISA detects its analyte on a solid surface through an enzyme-linked reagent.

Experiment [1] concerns recombinant human IL-23 protein (rhIL-23). Description: Binding of mouse antiserum to rhIL-23, ELISA. To be noted: rhIL-23 ELISA; antiserum of BALB/c mice 6 weeks after initial administration, 0.5 mg/body with Alhydrogel. How it is done:
(§1) AJP001 conjugated peptide (SEQ ID NOs: 6-37) was dissolved in physiological saline, mixed with an equal amount of 2% Alhydrogel (invivogen), and this was intradermally administered to BALB/c mice (female, 6-week-old, N=5-6) at 0.5 mg/body 3 times at two-week intervals. Blood was collected before administration and at the time point of 6 weeks after initial administration, and the antibody titer (GMT) to each epitope sequence and binding ability to recombinant human IL-23 protein (rhIL-23) (Peprotech) were measured by the ELISA method (same method as in Example 1). The binding to rhIL-23 was evaluated by a binding ratio to normal serum by calculating the ratio of the absorbance of a well added with normal mouse serum to the absorbance of a well added with antiserum derived from a mouse administered with each AJP001 conjugated peptide (SEQ ID NOs: 6-37). In addition, the neutralization activity of mouse antiserum was evaluated using an action on IL-17 production in rhIL-23 stimulated mouse splenocyte as an index. The spleen of normal BALB/c mouse (female, 5-week-old, N=3) was triturated using a syringe barrel and a cell strainer and washed with and suspended in HBSS (−). Erythrocytes were then removed using ACK Buffer (Thermo fisher scientific), and splenocytes were isolated. The splenocytes were prepared to 2.5×10^6 cells/mL with 10% FBS/1% penicillin/streptomycin/4 ng/mL rmIL-2-containing RPMI1640 medium (culture medium), and seeded in a 96 well plate at 100 μl/well. The antiserum (final concentration 15-fold) of the mice administered with each AJP001 conjugated peptide and rhIL-23 (final concentration 10 ng/ml) were added to the culture medium, reacted at 37° C. for 2 hr, added at 100 μL/well to a 96-well plate seeded with splenocytes, and cultured for 3 days in a 37° C./5% CO2 incubator. An untreated well and a control well to which normal mouse serum and rhIL-23 were added were provided. IL-17A/F in the culture supernatant was measured using Mouse IL-17A/F ELISA kit (R&D systems), the proportion (%) of IL-17 to normal serum was calculated from the IL-17 concentrations of untreated well (A), control well (B), and well (C) to which antiserum of the mice administered with each AJP001 conjugated peptide was added and according to the following formula, and the neutralization activity was evaluated.
AJP001 conjugated peptide (SEQ ID NO: 6) was dissolved in physiological saline and intradermally administered to BALB/c mice (female, 6-week-old, N=6) at 1 mg/body 3 times at two-week intervals, and blood was collected every 2 weeks until 8 weeks. The antibody titer (GMT) of all the collected sera and the binding ability to rhIL-23 of the serum at 6 weeks were measured by the ELISA method. In FIG. 5, “*” means P<0.05.

Experiment [2] concerns IL-17 production in rhIL-23 stimulated mouse splenocyte. Description: Neutralization activity of mouse antiserum: IL-17 production in rhIL-23 stimulated mouse splenocyte. In kind it is cell-based. To be noted: antiserum final 15-fold, rhIL-23 10 ng/ml, 3 days culture; IL-17A/F ELISA. As to the method: as §1
Percentage of IL-17 to normal serum (%)=100×(C−A/B−A)

Where no end group is shown, it is not given here.

Take “6 (SPSQPWQR; not fully specified (N-terminus); listed as Homo sapiens) [compound 6]”: the “antibody titer (GMT)” value in the experiment on epitope peptide was 12563. In addition, the “binding to IL-23 (binding ratio to normal serum)” value in experiment [1] came to 4.40. Further, in experiment [2], the “neutralization activity (percentage of IL-17 to normal serum (%))” value is listed as 15.8%.
On the same counts, the results for “7 (APSQPWQR; not fully specified (N-terminus)) [compound 7]” are 5417, 1.40 and 4.2%.
On the same counts, the results for “8 (SASQPWQR; not fully specified (N-terminus)) [compound 8]” are 3485, 1.37 and 1.4%.
In the case of “9 (SPAQPWQR; not fully specified (N-terminus)) [compound 9]”, in the experiment on epitope peptide, the “antibody titer (GMT)” value came out at 4683. The “binding to IL-23 (binding ratio to normal serum)” value in experiment [1] was 1.01. Further, the “neutralization activity (percentage of IL-17 to normal serum (%))” value in experiment [2] is reported as 4.0%.
On the same counts, the results for “10 (SPSAPWQR; not fully specified (N-terminus)) [compound 10]” are 19795, 1.03 and 0.0%.
On the same counts, the results for “11 (SPSQAWQR; not fully specified (N-terminus)) [compound 11]” are 10441, 1.55 and 8.1%.
On the same counts, the results for “12 (SPSQPAQR; not fully specified (N-terminus)) [compound 12]” are 48594, 1.12 and 3.1%.
Take “13 (SPSQPWAR; not fully specified (N-terminus)) [compound 13]”: in the experiment on epitope peptide, the “antibody titer (GMT)” value is recorded as 3215. The “binding to IL-23 (binding ratio to normal serum)” value in experiment [1] turned out to be 1.11. Moreover, the “neutralization activity (percentage of IL-17 to normal serum (%))” value in experiment [2] is 4.8%.
With “14 (SPSQPWQA; not fully specified (N-terminus)) [compound 14]”, in the experiment on epitope peptide, the “antibody titer (GMT)” value was 3331. The “binding to IL-23 (binding ratio to normal serum)” value in experiment [1] is reported as 1.23. The “neutralization activity (percentage of IL-17 to normal serum (%))” value in experiment [2] is reported as 8.0%.
In the case of “15 (PWQRPWQR; not fully specified (N-terminus)) [compound 15]”, in the experiment on epitope peptide, the “antibody titer (GMT)” value is recorded as 458. In experiment [1], the “binding to IL-23 (binding ratio to normal serum)” value is 1.16. In addition, in experiment [2], the “neutralization activity (percentage of IL-17 to normal serum (%))” value is reported as 10%.
On the same counts, the results for “16 (QWQRPWQR; not fully specified (N-terminus)) [compound 16]” are 201, 1.09 and 3.6%.
For the substance “17 (SSSQPWQR; not fully specified (N-terminus)) [compound 17]”, the “antibody titer (GMT)” value in the experiment with epitope peptide came out at 6096. The “binding to IL-23 (binding ratio to normal serum)” value in experiment [1] is 1.26. In addition, in experiment [2], the “neutralization activity (percentage of IL-17 to normal serum (%))” value stood at 1.6%.
Take “18 (STSQPWQR; not fully specified (N-terminus)) [compound 18]”: in the experiment with epitope peptide, the “antibody titer (GMT)” value turned out to be 8211. Besides, the “binding to IL-23 (binding ratio to normal serum)” value in experiment [1] was 1.21. The “neutralization activity (percentage of IL-17 to normal serum (%))” value in experiment [2] is given as 0.0%.
On the same counts, the results for “19 (SPSQSWQR; not fully specified (N-terminus)) [compound 19]” are 18311, 1.33 and 2.4%.
On the same counts, the results for “20 (SPSQTWQR; not fully specified (N-terminus)) [compound 20]” are 36347, 1.23 and 5.8%.
Consider “21 (SSSQSWQR; not fully specified (N-terminus)) [compound 21]”, for which the “antibody titer (GMT)” value with epitope peptide turned out to be 19793. In addition, the “binding to IL-23 (binding ratio to normal serum)” value in experiment [1] amounted to 1.07. Also, the “neutralization activity (percentage of IL-17 to normal serum (%))” value in experiment [2] was found to be 6.9%.
On the same counts, the results for “22 (SSSQTWQR; not fully specified (N-terminus)) [compound 22]” are 2160, 1.35 and 8.5%.
On the same counts, the results for “23 (STSQSWQR; not fully specified (N-terminus)) [compound 23]” are 31720, 1.33 and 9.4%.
For “24 (STSQTWQR; not fully specified (N-terminus)) [compound 24]”, the “antibody titer (GMT)” value in the experiment with epitope peptide is given as 126353. Also, the “binding to IL-23 (binding ratio to normal serum)” value in experiment [1] came to 1.20. In experiment [2], the “neutralization activity (percentage of IL-17 to normal serum (%))” value stood at 0.0%.
Take “25 (SPSQQWQR; not fully specified (N-terminus)) [compound 25]”: the “antibody titer (GMT)” value with epitope peptide turned out to be 285265. For the same substance, the “binding to IL-23 (binding ratio to normal serum)” value in experiment [1] was determined as 1.66. The “neutralization activity (percentage of IL-17 to normal serum (%))” value in experiment [2] was 2.1%.
